Laboratory results reported in ChEMBL document CHEMBL1641552 (Bioorg Med Chem Lett, 2011).

Assays:
Sialidase = target: T1, Sialidase (Clostridium perfringens, UniProt P10481); assay: Inhibition of Clostridium perfringens neuraminidase
T1 sequence (P10481 whole entry): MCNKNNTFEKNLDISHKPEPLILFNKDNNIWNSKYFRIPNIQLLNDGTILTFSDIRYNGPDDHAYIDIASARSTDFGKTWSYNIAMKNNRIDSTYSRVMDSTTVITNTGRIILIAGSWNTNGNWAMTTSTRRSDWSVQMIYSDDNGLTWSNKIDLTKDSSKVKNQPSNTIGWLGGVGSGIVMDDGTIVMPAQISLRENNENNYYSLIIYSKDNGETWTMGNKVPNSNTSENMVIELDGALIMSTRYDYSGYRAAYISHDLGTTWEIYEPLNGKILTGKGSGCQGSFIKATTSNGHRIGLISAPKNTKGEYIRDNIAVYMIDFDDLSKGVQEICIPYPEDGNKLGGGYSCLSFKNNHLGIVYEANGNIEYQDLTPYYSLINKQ

Neuraminidase [1] = target: T2, Neuraminidase (Influenza A virus, UniProt B4URF0); assay: Inhibition of Influenza A H9N2 virus neuraminidase activity after 2 hrs by spectrofluorometry
Neuraminidase [2] = target: T2, Neuraminidase; assay: Inhibition of Influenza A H1N1 virus neuraminidase activity after 2 hrs by spectrofluorometry
Neuraminidase [3] = target: T2, Neuraminidase; assay: Noncompetitive inhibition of Influenza A H1N1 virus neuraminidase activity by Lineweaver-Burk plot analysis
Neuraminidase [4] = target: T2, Neuraminidase; type: cell-based, H1N1 swine influenza virus, HEK-293T

Structure (SMILES) | IC50 (Sialidase) | IC50 (Neuraminidase [1]) | IC50 (Neuraminidase [2]) | IC50 (Neuraminidase [3]) | IC50 (Neuraminidase [4])
CC(C)=CCc1cc(/C=C/C(=O)c2ccc(O)cc2O)cc(O)c1O [5'-PRENYLBUTEIN] | 9.25 µM | 104 µM | 76 µM | 96.3 µM | 
COc1cc(O)ccc1/C=C/C(=O)c1ccc(O)cc1 [ECHINATIN] |  | 21.1 µM | 21.5 µM | 30.4 µM | 9.21 µM
O=C(/C=C/c1ccc(O)cc1)c1ccc(O)cc1O [ISOLIQUIRITIGENIN] | 44 µM |  |  |  | 
CC(C)=CCc1cc(/C=C/C(=O)c2ccc(O)c(CC=C(C)C)c2O)ccc1O [KANZONOL C] | 1.12 µM | 135 µM | 192 µM | 212 µM | 
C=CC(C)(C)c1cc(/C=C/C(=O)c2ccc(O)cc2)c(OC)cc1O [LICOAGROCHACONE A] | 20.4 µM | 53.1 µM | 56.4 µM | 53.9 µM | 16 µM
CC(C)=CCc1cc(/C=C/C(=O)c2ccc(O)cc2O)ccc1O [LICOAGROCHALCONE A] | 1.6 µM | 175 µM | 159 µM | 185 µM | 
COc1c(/C=C/C(=O)c2ccc(O)c(CC=C(C)C)c2)ccc(O)c1O [LICOCHALCONE D] | 3.33 µM | 99.4 µM | 80.8 µM | 103 µM | 
C=CC(C)(C)c1cc(/C=C/C(=O)c2ccc(O)cc2O)c(OC)cc1O [LICOCHALCONE G] | 2.37 µM | 119 µM | 106 µM | 117 µM | 
